Results reported in article PMC5908784, “Extracellular loops 2 and 3 of the calcitonin receptor selectively modify agonist binding and efficacy” (Biochemical Pharmacology, 2018).
Substitutions are numbered along the chain they refer to. Where no end group is shown, it is not given here.

Experiments:
Assay in all cases: Homologous whole cell competition binding
Conditions in all cases: homologous competition of 125I-sCT(8-32), whole cells, mean ± S.E.M., SEM
hCTR G369A = target: T1, hCTR G369A (Homo sapiens, UniProt P30988, G369A)
T1 construct: c-Myc (N); expressed in transfected cells
T1 sequence (P30988 25-474 G369A): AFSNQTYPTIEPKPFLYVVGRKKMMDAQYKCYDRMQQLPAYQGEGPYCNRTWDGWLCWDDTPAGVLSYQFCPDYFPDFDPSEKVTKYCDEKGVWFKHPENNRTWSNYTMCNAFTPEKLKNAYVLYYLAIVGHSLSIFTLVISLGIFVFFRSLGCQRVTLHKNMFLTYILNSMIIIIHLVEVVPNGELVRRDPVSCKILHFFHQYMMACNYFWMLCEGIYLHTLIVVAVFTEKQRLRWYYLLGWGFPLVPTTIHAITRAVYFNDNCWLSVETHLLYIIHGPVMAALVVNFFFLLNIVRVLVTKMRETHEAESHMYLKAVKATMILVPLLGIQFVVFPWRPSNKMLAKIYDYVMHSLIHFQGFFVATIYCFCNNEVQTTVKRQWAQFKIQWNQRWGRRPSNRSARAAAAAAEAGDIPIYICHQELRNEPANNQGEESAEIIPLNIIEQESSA
How it was run: (§1)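 Gamma counting of bound ^125I-sCT(8-32) after overnight 4 °C incubation of intact cells with tracer (two levels, 25–100 pM) plus unlabelled sCT(8-32) dilutions. Data normalized to total and 1 μM sCT(8-32) nonspecific binding; pKi via Cheng-Prusoff.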

hCTR K366A = target: T2, hCTR K366A (Homo sapiens, UniProt P30988, K366A)
T2 construct: c-Myc (N); expressed in transfected cells
T2 sequence (P30988 25-474 K366A): T1 sequence (P30988 25-474 G369A) with K342A, A345G
How it was run: as §1

hCTR L291A = target: T3, hCTR L291A (Homo sapiens, UniProt P30988, L291A)
T3 construct: expressed in transfected cells
T3 sequence (P30988 25-474 L291A): T1 sequence (P30988 25-474 G369A) with L267A, A345G
How it was run: as §1

hCTR T295A = target: T4, hCTR T295A (Homo sapiens, UniProt P30988, T295A)
T4 construct: c-Myc (N); expressed in transfected cells
T4 sequence (P30988 25-474 T295A): T1 sequence (P30988 25-474 G369A) with T271A, A345G
How it was run: as §1

Question: How did the Ki (hCTR G369A) turn out when “VLGKLSQELHKLQTYPRTNTGSGTP-NH2 [sCT(8-32)]” was run?
Answer: The Ki was 0.229 nM.

Question: What about the Ki (hCTR K366A) of the same substance?
Answer: Its Ki is 0.195 nM.

Question: What about the Ki (hCTR L291A) of the same substance?
Answer: The Ki was 1.74 nM.

Question: What about the Ki (hCTR T295A) of the same substance?
Answer: Its Ki is 0.0501 nM.
